# Experiments:
# [1] = post oral dosing; cited from earlier work
# [2] = human urine; major defined by ≧10% total drug exposure (Baselt 2014); cited from earlier work
# [3] = human, in vivo
# Procedure: (§1) Samples were subsequently vortexed and centrifuged prior to the injection of 5 μL on the QQQ. Each patient sample was analyzed twice to ensure accuracy.
# (§2) Samples were subsequently vortexed and centrifuged prior to the injection of 5 μL on the QQQ.
# as §2, §1, §2, §2, §2, §2, §2
# [4] = Urine test of patients prescribed Seroquel after enzymatic hydrolysis with recombinant β-glucuronidase, QQQ; assay type: in vivo, human; details: patient prescribed Seroquel, various doses
# Procedure: 100 μL of each patient specimen was diluted with 400 μL of a “master mix” that included 1.6 μg/mL of quetiapine-D8 (internal standard), 0.06 M phosphate buffer, and at least 1450 U of a recombinant β-glucuronidase enzyme.
# [5] = cited from earlier work
# [6] = humans; cited from earlier work
compound,measurement,setting,value
"c1ccc2c(c1)N=C(N1CCNCC1)c1ccccc1S2 [N-Desalkyl Quetiapine, N-Desalkyl Quetiapine (Norquetiapine)]",share of the total radioactivity in plasma,[1],10%
same,abundance in urine,[2],only small quantities
[O-][S+]1c2ccccc2N=C(N2CCN(CCOCCO)CC2)c2ccccc21 (centres unmarked) [Quetiapine Sulfoxide],"Urine concentration, Pre-Hydrolysis Results, Average",[3],2318 ng/mL
same,"Urine concentration, Pre-Hydrolysis Results, Maximum Value",[3],>5000 ng/mL
same,"Urine concentration, Pre-Hydrolysis Results, Median Value",[3],2143 ng/mL
same,"Urine concentration, Pre-Hydrolysis Results, Subject HR",[3],>5000 ng/mL
same,"Urine concentration, Pre-Hydrolysis Results, Subject eight",[3],>5000 ng/mL
same,"Urine concentration, Pre-Hydrolysis Results, Subject eighteen",[3],>5000 ng/mL
same,"Urine concentration, Pre-Hydrolysis Results, Subject eleven",[3],2143 ng/mL
same,"Urine concentration, Pre-Hydrolysis Results, Subject fifteen",[3],740 ng/mL
same,"Urine concentration, Pre-Hydrolysis Results, Subject five",[3],4484 ng/mL
same,"Urine concentration, Pre-Hydrolysis Results, Subject four",[3],>5000 ng/mL
same,"Urine concentration, Pre-Hydrolysis Results, Subject fourteen",[3],>5000 ng/mL
same,"Urine concentration, Pre-Hydrolysis Results, Subject nine",[3],>5000 ng/mL
same,"Urine concentration, Pre-Hydrolysis Results, Subject one",[3],>5000 ng/mL
same,"Urine concentration, Pre-Hydrolysis Results, Subject seven",[3],>5000 ng/mL
same,"Urine concentration, Pre-Hydrolysis Results, Subject seventeen",[3],>5000 ng/mL
same,"Urine concentration, Pre-Hydrolysis Results, Subject six",[3],1252 ng/mL
same,"Urine concentration, Pre-Hydrolysis Results, Subject sixteen",[3],2971 ng/mL
same,"Urine concentration, Pre-Hydrolysis Results, Subject thirteen",[3],>5000 ng/mL
same,"Urine concentration, Pre-Hydrolysis Results, Subject three",[3],>5000 ng/mL
same,"Urine concentration, Pre-Hydrolysis Results, Subject twelve",[3],>5000 ng/mL
same,"Urine concentration, Pre-Hydrolysis Results, Subject twenty",[3],>5000 ng/mL
same,"Urine concentration, Pre-Hydrolysis Results, Subject twenty-five",[3],>5000 ng/mL
same,"Urine concentration, Pre-Hydrolysis Results, Subject twenty-four",[3],>5000 ng/mL
same,"Urine concentration, Pre-Hydrolysis Results, Subject twenty-one",[3],>5000 ng/mL
same,"Urine concentration, Pre-Hydrolysis Results, Subject twenty-two",[3],>5000 ng/mL
same,"Urine concentration, Pre-Hydrolysis Results, Subject two",[3],>5000 ng/mL
same,"Urine concentration, Post-Hydrolysis Results, Subject W",[4],ND (Indicates that the listed parent or metabolite compound was either not detected or detected below the established cut-off of 5 ng/mL indicating a negative result for that particular subject.)
same,abundance in urine,[2],major
"OCCOCCN1CCN(C2=Nc3ccccc3Sc3ccccc32)CC1 [Quetiapine, 2-(2-(4-dibenzo[b,f][1,4]thiazepine-11-yl-1-piperazinyl)ethoxy) ethanol, reference compound]","Urine concentration, Pre-Hydrolysis Results, Average",[3],838 ng/mL
same,"Urine concentration, Pre-Hydrolysis Results, Maximum Value",[3],4999 ng/mL
same,"Urine concentration, Pre-Hydrolysis Results, Median Value",[3],287 ng/mL
same,"Urine concentration, Pre-Hydrolysis Results, Minimum Value",[3],17 ng/mL
same,"Urine concentration, Pre-Hydrolysis Results, Subject HR",[3],4574 ng/mL
same,"Urine concentration, Pre-Hydrolysis Results, Subject eight",[3],120 ng/mL
same,"Urine concentration, Pre-Hydrolysis Results, Subject eighteen",[3],755 ng/mL
same,"Urine concentration, Pre-Hydrolysis Results, Subject eleven",[3],17 ng/mL
same,"Urine concentration, Pre-Hydrolysis Results, Subject fifteen",[3],1118 ng/mL
same,"Urine concentration, Pre-Hydrolysis Results, Subject five",[3],77 ng/mL
same,"Urine concentration, Pre-Hydrolysis Results, Subject four",[3],187 ng/mL
same,"Urine concentration, Pre-Hydrolysis Results, Subject fourteen",[3],917 ng/mL
same,"Urine concentration, Pre-Hydrolysis Results, Subject one",[3],269 ng/mL
same,"Urine concentration, Pre-Hydrolysis Results, Subject seven",[3],873 ng/mL
same,"Urine concentration, Pre-Hydrolysis Results, Subject seventeen",[3],315 ng/mL
same,"Urine concentration, Pre-Hydrolysis Results, Subject six",[3],77 ng/mL
same,"Urine concentration, Pre-Hydrolysis Results, Subject sixteen",[3],97 ng/mL
same,"Urine concentration, Pre-Hydrolysis Results, Subject thirteen",[3],1137 ng/mL
same,"Urine concentration, Pre-Hydrolysis Results, Subject three",[3],304 ng/mL
same,"Urine concentration, Pre-Hydrolysis Results, Subject twelve",[3],361 ng/mL
same,"Urine concentration, Pre-Hydrolysis Results, Subject twenty",[3],208 ng/mL
same,"Urine concentration, Pre-Hydrolysis Results, Subject twenty-one",[3],137 ng/mL
same,"Urine concentration, Pre-Hydrolysis Results, Subject twenty-two",[3],222 ng/mL
same,"Urine concentration, Pre-Hydrolysis Results, Subject two",[3],4999 ng/mL
same,"Urine concentration, Post-Hydrolysis Results, Subject T",[4],86 ng/mL
same,"Urine concentration, Post-Hydrolysis Results, Subject W",[4],ND (Indicates that the listed parent or metabolite compound was either not detected or detected below the established cut-off of 5 ng/mL indicating a negative result for that particular subject.)
same,"Urine concentration, Post-Hydrolysis Results, Subject eleven",[4],4059 ng/mL
same,"Urine concentration, Post-Hydrolysis Results, Subject fifteen",[4],>5000 ng/mL
same,"Urine concentration, Post-Hydrolysis Results, Subject four",[4],2928 ng/mL
same,"Urine concentration, Post-Hydrolysis Results, Subject nine",[4],1494 ng/mL
same,"Urine concentration, Post-Hydrolysis Results, Subject nineteen",[4],29 ng/mL
same,"Urine concentration, Post-Hydrolysis Results, Subject seventeen",[4],>5000 ng/mL
same,"Urine concentration, Post-Hydrolysis Results, Subject sixteen",[4],3019 ng/mL
same,"Urine concentration, Post-Hydrolysis Results, Subject twenty",[4],>5000 ng/mL
same,"Urine concentration, Post-Hydrolysis Results, Subject twenty-five",[4],2579 ng/mL
same,"Urine concentration, Post-Hydrolysis Results, Subject twenty-three",[4],14 ng/mL
same,share of the total radioactivity in plasma,[1],24%
same,time to steady state serum concentrations,[5]; days of dosing,2 days
same,increase of bioavailability,[5]; dosing with a light meal (~300 calories),~20%
same,mean elimination half-life,[5]; in vivo,6 h
same,absorption,[5]; oral administration,rapidly absorbed
same,excreted in the feces,[6],20%
same,recovered in the urine,[6],73%
O=C(O)COCCN1CCN(C2=Nc3ccccc3Sc3ccccc32)CC1 [Quetiapine Carboxylic Acid],"Urine concentration, Pre-Hydrolysis Results, Subject HR",[3],>5000 ng/mL
same,"Urine concentration, Pre-Hydrolysis Results, Subject T",[3],6 ng/mL
same,"Urine concentration, Pre-Hydrolysis Results, Subject W",[3],5 ng/mL
same,"Urine concentration, Pre-Hydrolysis Results, Subject eight",[3],>5000 ng/mL
same,"Urine concentration, Pre-Hydrolysis Results, Subject eighteen",[3],>5000 ng/mL
same,"Urine concentration, Pre-Hydrolysis Results, Subject eleven",[3],>5000 ng/mL
same,"Urine concentration, Pre-Hydrolysis Results, Subject fifteen",[3],>5000 ng/mL
same,"Urine concentration, Pre-Hydrolysis Results, Subject five",[3],>5000 ng/mL
same,"Urine concentration, Pre-Hydrolysis Results, Subject four",[3],>5000 ng/mL
same,"Urine concentration, Pre-Hydrolysis Results, Subject fourteen",[3],>5000 ng/mL
same,"Urine concentration, Pre-Hydrolysis Results, Subject nine",[3],>5000 ng/mL
same,"Urine concentration, Pre-Hydrolysis Results, Subject nineteen",[3],5 ng/mL
same,"Urine concentration, Pre-Hydrolysis Results, Subject one",[3],>5000 ng/mL
same,"Urine concentration, Pre-Hydrolysis Results, Subject seven",[3],>5000 ng/mL
same,"Urine concentration, Pre-Hydrolysis Results, Subject seventeen",[3],>5000 ng/mL
same,"Urine concentration, Pre-Hydrolysis Results, Subject sixteen",[3],>5000 ng/mL
same,"Urine concentration, Pre-Hydrolysis Results, Subject thirteen",[3],>5000 ng/mL
same,"Urine concentration, Pre-Hydrolysis Results, Subject three",[3],>5000 ng/mL
same,"Urine concentration, Pre-Hydrolysis Results, Subject twelve",[3],>5000 ng/mL
same,"Urine concentration, Pre-Hydrolysis Results, Subject twenty",[3],>5000 ng/mL
same,"Urine concentration, Pre-Hydrolysis Results, Subject twenty-five",[3],>5000 ng/mL
same,"Urine concentration, Pre-Hydrolysis Results, Subject twenty-four",[3],>5000 ng/mL
same,"Urine concentration, Pre-Hydrolysis Results, Subject twenty-three",[3],10 ng/mL
same,"Urine concentration, Pre-Hydrolysis Results, Subject twenty-two",[3],>5000 ng/mL
same,abundance in urine,[2],major
